Measurements published in patent US6741954B2, “Selection method for odorants” (Symrise GmbH & Co. KG, priority 2000, dated 2004).
Read-outs that look alike come from different tables or passages of the source.

How the values were obtained:
Assay type in all cases: physicochemical
[1] = Headspace above the wet washed hair: relative partition parameter headspace/shampoo (SPME-GC)
Protocol: (§1) The procedure is analogous in all examples.
The example reflects the scent impression, which is perceived from freshly washed hair. The shampoo is prepared as is generally customary. The mixture of 39 odorants is incorporated into the above-mentioned shampoo (1st) in an amount of 1%. A hair tress (2.5 g) is washed in 100 ml of a 20% shampoo solution in water by immersing 5-10 times and stirring, and then rinsed in 100 ml of clear water by immersing it three times. The hair tress is carefully patted with thin cellulose. The moist hair tress is transferred to a 100 ml Erlenmeyer flask sealed with a septum and left to stand for 3 h. The headspace above the washed and rinsed hair tress is extracted over 15 min using solid phase microextraction (SPME). The SPME needle is desorbed in a GC injector, and a gas chromatogram is recorded. […] The analytical results are then used mathematically as described above.

[2] = Headspace above the shampoo: relative partition parameter (SPME-GC); details: log of amount in headspace relative to amount in shampoo; 1% odorant mixture, SPME 15 min
Protocol: as §1
The example reflects the scent impression, which is perceived from a freshly opened bottle of shampoo. The mixture of 39 odorants is incorporated into the above-mentioned shampoo (1) in an amount of 1%. 20 g of the shampoo are transferred to a 100 ml Erlenmeyer flask sealed with a septum. The headspace above the shampoo is extracted using a SPME over 15 min. […] The analytical results are then used mathematically as described above.

[3] = Headspace above the soap bar: relative partition parameter (SPME-GC)
Protocol: as §1
The example reflects the scent impression, which is perceived from a fresh bar of soap. […] 20 g of the grated soap are transferred to a 100 ml Erlenmeyer flask sealed with a septum. The headspace above the shampoo is extracted using a SPME over 15 min. […] The analytical results are then used mathematically as described above.

[4] = Headspace above the washing powder: relative partition parameter (SPME-GC)
Protocol: as §1
The example reflects the scent impression, which is perceived from a freshly opened pack of laundry detergent. The mixture of 39 odorants is incorporated in the above-mentioned washing powder in an amount of 0.5%. 20 g of the washing powder are transferred to a 100 ml Erlenmeyer flask sealed with a septum. The headspace above the shampoo is extracted using a SPME over 15 min. […] The analytical results are then used mathematically as described above.

[5] = Headspace above the candle wax: relative partition parameter (SPME-GC); details: log of amount in headspace relative to amount in candle wax; 5% odorant mixture, grated nonburning candle, SPME 15 min
Protocol: as §1
The example reflects the scent impression, which is perceived from a nonburning candle. The mixture of 39 odorants is incorporated into a candle in an amount of 5%. 20 g of the grated candle are transferred to a 100 ml Erlenmeyer flask sealed with a septum. The headspace above the candle is extracted using a SPME over 15 min. […] The analytical results are then used mathematically as described above.

[6] = Headspace above the fresh gel room air freshener: relative partition parameter (SPME-GC); details: log of amount in headspace relative to amount in gel; 5% odorant mixture, 10 liter vessel, 1 h, SPME 15 min
Protocol: as §1
The example reflects the scent impression, which is perceived above a fresh gel room air freshener. The mixture of 39 odorants is incorporated into an air freshener in an amount of 5%. 100 g of the air freshener are placed in its customary presentation form in a large sealed 10 liter vessel. The air freshener is left to stand for one hour. The headspace above the air freshener is extracted using a SPME over 15 min. […] The analytical results are then used mathematically as described above.

[7] = Headspace above the solution of WC scented block cleaner: relative partition parameter (SPME-GC); details: log of amount in headspace above 1% solution in water relative to amount in WC block; 1% odorant mixture, SPME 15 min
Protocol: as §1
The example reflects the scent impression, which is perceived from a WC scented block cleaner. The mixture of 39 odorants is incorporated into the toilet block in an amount of 1%. A 1% solution of the toilet block in water is prepared. 20 ml of this solution are transferred to a 100 ml Erlenmeyer flask sealed with a septum. The headspace above the shampoo is extracted by means of a SPME over 15 min. […] The analytical results are then used mathematically as described above.

[8] = log of amount in headspace above wet washed hair relative to amount in shampoo, 1% odorant mixture, 3 h standing, SPME 15 min
[9] = log of amount in headspace relative to amount in soap, 1.2% odorant mixture, grated soap, SPME 15 min
[10] = log of amount in headspace relative to amount in washing powder, 0.5% odorant mixture, SPME 15 min

Compound | Activity (logarithmic partition parameter above wet hair) [1, 8] | Activity (logarithmic partition parameter above shampoo) [2] | Activity (logarithmic partition parameter above soap) [3, 9] | Activity (logarithmic partition parameter above washing powder) [4, 10] | Activity (logarithmic partition parameter above candle wax) [5] | Activity (logarithmic partition parameter above gel room air fresheners) [6] | Activity (logarithmic partition parameter above dissolved WC scented block cleaners) [7] | Activity (logarithmic partition parameter above wet hair) [1] | Activity (logarithmic partition parameter above soap) [3] | Activity (logarithmic partition parameter above washing powder) [4]
CC(=O)O[C@@H]1C[C@H]2CC[C@]1(C)C2(C)C (racemic) [Isobornyl acetate] | −0.741 | −0.026 | 0.147 | 0.061 | −0.588 | 0.392 | −0.434 |  |  | 
OCc1ccccc1 [Benzyl alcohol] | −1.867 | −0.759 | −0.088 | −0.389 | −0.364 | 0.148 |  |  |  | 
O=C(OCc1ccccc1)c1ccccc1O [Benzyl salicylate] |  |  |  | −2.349 |  |  | −3.166 |  |  | 
C[C@@H]1CC[C@H]2C(C)(C)[C@H]3C[C@@]12CC[C@@]3(C)O [Cedrol] | −2.475 |  | −2.090 | −1.547 |  | −1.761 | −1.348 |  |  | 
CC(=O)O[C@]1(C)CC[C@@]23C[C@@H]1C(C)(C)[C@@H]2CC[C@H]3C [Cedryl acetate] |  |  |  |  |  | −2.566 | −1.161 | −2.685 | −2.483 | −1.971
CCOC(=O)c1ccccc1C(=O)OCC [Diethyl phthalate] |  |  | −1.742 | −2.124 | −2.459 | −2.303 |  |  |  | 
C=CCc1ccc(O)c(OC)c1 [Eugenol] | −2.257 |  | −1.435 | −1.440 | −0.822 | −0.653 | −2.412 |  |  | 
CCCCCC/C(C=O)=C\c1ccccc1 [Hexylcinnamaldehyde, alpha] | −2.690 |  | −2.176 | −1.559 |  |  | −1.413 |  |  | 
CC(CC=O)CCCC(C)(C)O (stereo not shown) [Hydroxycitronellal] | −2.381 |  | −1.804 | −1.609 | −1.869 | −1.161 |  |  |  | 
CC(C)CCOC(=O)c1ccccc1O [Isoamyl salicylate] | −1.612 | −1.716 | −1.190 | −1.467 |  | −1.544 | −0.870 |  |  | 
C=C(C)[C@H]1CC=C(C)CC1 [Limonene D] | −0.183 | 0.965 | 0.748 |  |  | 0.062 | −1.102 |  |  | 
